Results published in patent publication US5278068A, “Biologically pure culture of Cytospora useful as angiotensin II antagonist” (Merck & Co., Inc., priority 1992, dated 1994).
Values joined by “and” are separate entries in the source; they are usually repeats but may differ in a detail not shown here. Equal entries are not always repeated.

Key:
[1] = target: T1, angiotensin II receptor, site 2 (rat adrenal membranes) (Rattus norvegicus, UniProt P35351); test: Receptor Assay using Rat Adrenal Gland Preparation (125I-Angiotensin II binding); settings: at site 2, 37° C., 90 minutes
T1 construct: Adrenal membranes for the receptor assay were readied first by placing cleaned, whole adrenal glands in microcentrifuge tubes; from tissue; host or cells: rat adrenal gland membranes
T1 sequence (P35351 1-363): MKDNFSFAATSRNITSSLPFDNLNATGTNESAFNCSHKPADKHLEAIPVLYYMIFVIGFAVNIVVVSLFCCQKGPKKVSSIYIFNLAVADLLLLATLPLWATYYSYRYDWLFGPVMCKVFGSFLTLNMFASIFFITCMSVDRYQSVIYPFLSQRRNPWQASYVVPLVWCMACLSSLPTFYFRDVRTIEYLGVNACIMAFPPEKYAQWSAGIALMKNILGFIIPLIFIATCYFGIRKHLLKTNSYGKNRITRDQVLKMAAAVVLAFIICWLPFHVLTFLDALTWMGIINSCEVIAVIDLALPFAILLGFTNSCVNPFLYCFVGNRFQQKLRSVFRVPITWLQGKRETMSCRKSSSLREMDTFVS
Excerpt: Angiotensin II (AII) is a powerful arterial vasoconstrictor, and it exerts its action by interacting with specific receptors present on cell membranes. The compounds produced by Cytospora sp. are competitive antagonists of AII at receptor sites. The usefulness of compounds as AII antagonists may be determined from the results of certain receptor binding assays. The initial assay is that using rat adrenal glands and the results of this assay are described herein.
Adrenal membranes for the receptor assay were readied first by placing cleaned, whole adrenal glands in microcentrifuge tubes (20 glands per tube), and freezing and storing under liquid nitrogen. As needed, a microcentrifuge tube of adrenal glands was homogenized in 20 ml 50 mM tris (hydroxymethyl)aminomethane hydrochloride (Tris-HCl) pH 7.7 and centrifuged at 20,000 rpm for 15 minutes at 4° C. […]
For the assay, the adrenal membrane preparation in one vial was resuspended in 30 ml of 100 mM Tris-HCl pH 7.4 with 5 mM MgCl2, 0.2% bovine serum albumin and 0.2 mg/ml bacitracin. […] The vials are counted with a gamma counter for one minute and percent inhibition determined from counts/min (CPM) as follows: [formula] The IC50 is determined by plotting percent inhibition v. concentration of compound tested.

male Sprague-Dawley rats = settings: rat; known activity; cited from earlier work
rats = settings: rat; known activity; cited from earlier work

In the case of `CCCCCC1=C(C=O)C2OC(C)(C)C(O)CC23OC3C1=O` (stereo not drawn) [Compound A], the IC50 [1] is reported as 1.62 to 3.24 µM and 1 to 2 µM.
For `CN1C(=O)CN=C(c2ccccc2)c2cc(Cl)ccc21` [Diazepam], the “activity in conditioned emotional response assay” value (male Sprague-Dawley rats) is given as “active in this assay”.
For `CNC(=O)Oc1ccc2c(c1)[C@]1(C)CCN(C)[C@@H]1N2C` [physostigmine], the “activity in passive avoidance assay” value (rats) is listed as “known to be active”.
